“Also recorded” adds a separate entry of the source. Values belong to the molecule of their own block, whether it stands above or below them.
Key:
Cln2^R207X mice [1] = assay: Tremor index score on force plate actimeter in Cln2^R207X mice; assay type: in vivo, mouse; details: for tremor index score: 10 weeks of age
Description: (§1) Specific experimental details are included in figure legends. In general, after collection and preparation, MEFs and PNCs were dosed with vehicle or AF38469 (40 nM, 400 nM. or 4 μM) on DIV3 and DIV5. On DIV7, cells were treated with the following dyes: Hoechst 33342 (1:1000 dilution), LysoTrackerT™ Red DND-99 (1:10,000 dilution), fixed, and imaged. Mice were given vehicle or AF38469 (78.125 μg/ml, 3.125 μg/ml, 0.3125 μg/ml or 0.03125 μg/ml equating approximately to 250 μg/mouse/day, 10 μg/mouse/day, 1 μg/mouse/day, and […], respectively, given a mouse's daily water intake of approximately 3.2 ml per day) in drinking water beginning at wean. Body weight was measured bi-weekly, and a force actimeter test was performed on Cln2^R207X mice at 10 weeks of age. Body weight was measured every month for Cln3^Δex7/8 mice. At 11 and 16 weeks of age, respectively, Cln2^R207X and Cln3^Δex7/8 mice along with age matched wild type control mice were CO2 euthanized and intracardially perfused with PBS. Brains were collected and placed on a 1 mm sagittal brain block. Brains were sliced at the midline and 3 mm right of the midline. One hemisphere was fixed in 4% PFA and sectioned at 50 microns on a vibratome. Immunohistochemistry was performed on free-floating sections. For mitochondrial ATP synthase subunit C (SubC), glial fibrillary acidic protein (GFAP), and cluster of differentiation 68 (CD68) immunolabeling, primary antibodies included anti-SubC (Abcam, ab181243; 1:1000), anti-GFAP (Dako, Z0334; 1:5000), anti-CD68 (AbD Serotec, MCA1957; 1:2000), and secondary antibodies included anti-rabbit biotinylated (Vector Labs, BA-1000 1:1000) and anti-rat (Vector Labs, BA-9400 1:1000). Coverslips were mounted on slides using antifade-mounting media and were stored in the dark before imaging. Sections were imaged and analyzed using an Aperio Digital Pathology Slide Scanner (AT2) and associated software. Images were extracted from S1BF of the somatosensory cortex and the VPM/VPL of the thalamus, with multiple images taken of multiple tissues from each animal.
Short-term chronic treatment with AF38469 reduced tremor phenotype in Cln2^R207X mice. Beginning at wean, wild type and Cln2^R207X mice were treated with vehicle (0.2408% DMSO) or AF38469 (0.03125 μg/ml, 0.3125 μg/ml, 3.125 μg/ml, 78.125 μg/ml) continuously through the drinking water. At 10 weeks of age, wild type and Cln2^R207X mice were evaluated on the force plate actimeter. Evaluation of tremors with the force plate actimeter software produces a tremor index score based on the tremor frequency 5-10 Hz (A), 10-15 Hz (B), 15-20 Hz (C) and 20-25 Hz (D). Data was analyzed with Graphpad. Two-way ANOVA. Mean±S.E.M. Dunnett's multiple comparisons test. *p<0.05, **p<0.01, ***p<0.001, ****p<0.0001. […]

Cln2^R207X mice [2] = assay: Astroglial activation (GFAP) in brain of Cln2^R207X mice; assay type: in vivo, mouse
Description: as §1
Short-term chronic treatment with AF38469 impacts glial activation in Cln2^R207X mice. Beginning at wean, wild type and Cln2^R207X mice were treated with vehicle (0.2408% DMSO) or AF38469 (0.03125 μg/ml, 0.3125 μg/ml, 3.125 μg/ml, 78.125 μg/ml) continuously through the drinking water continuing until sacrifice at 11 weeks. Upon sacrifice, one hemisphere of brain was sectioned at 50 microns on a vibratome; DAB staining immunohistochemistry was then performed using anti-GFAP (Dako, Z0334; 1:5000), anti-CD68 (AbD Serotec, MCA1957; 1:2000), anti-rabbit biotinylated (Vector Labs, BA-1000 1:1000), and anti-rat (Vector Labs, BA-9400 1:1000). Sections were imaged and analyzed using an Aperio Digital Pathology Slide Scanner (AT2) and associated software. Images were extracted from S1BF of the somatosensory cortex and the VPM/VPL of the thalamus. Percent area of immunoreactivity were quantified using a threshold analysis in ImageJ™. Statistical analyses were performed using GraphPad Prism™ (v8.4.3; San Diego, CA). […] Increasing concentrations of AF38469 and corresponding genotypes are shown along the x-axis. Nested one-way ANOVA. Mean±S.E.M. Dunnett's multiple comparisons test compared to the mutant vehicle treated group. *p<0.05, **p<0.01, ***p<0.001, ****p<0.0001. Reactive gliosis including activated microglia and reactive astrocytes is one of the histopathologies associated with neurodegenerative diseases such as NCLs.

Cathepsin D = Cathepsin D enzyme in MEF lysates; assay type: cell-based, mouse
Description: Since LM11A-31 stimulates the nuclear translocation of transcription factors responsible for lysosome biogenesis, we asked whether LM11A-31 increases the overall activity levels of lysosomalenzymes in cellulo. […] Wild type (WT) and mutant cells were treated with vehicle or LM11A-31 (100 nM). Cells were plated on day 0 and dosed with drug-containing media on DIV3 and DIV5. Cells were lysed, and protein quantification and enzyme activity assay were performed on DIV7. Data was analyzed with GraphPad Prism™. Two-way ANOVA. Mean±S.E.M. Tukey's multiple comparisons test. *p<0.05, **p<0.01, ***p<0.001, ****p<0.0001. […] Palmitoyl-protein thioesterase 1 (PPT1) is the lysosomal enzyme mutated in CLN1 disease and removes thioester-linked fatty acyl groups from modified cysteines of substrate proteins. Tripeptidyl peptidase 1 (TPP1) is the lysosomal enzyme mutated in CLN2 disease and has broad substrate specificity against various proteins degraded in the lysosome after cleavage. Mutations in the CTSD gene, encoding cathepsin d, a lysosomal protease that is involved in the recycling and degradation, is a known cause of Cln10 disease.

[3] = Stability of semaglutide in solution (vehicle formulation); assay type: physicochemical; details: 4° C.
Description: In in vitro models, semaglutide (Creative Peptides, Catalog #910463-68-2) was tested in concentrations of 10 nM, 100 nM, and 1 μM in 1% DMSO. Vehicle treated cells were dosed with 1% DMSO. In in vivo models, semaglutide (Creative Peptides, Catalog #910463-68-2) was tested in concentrations of 2.571 μg/mouse and 25.71 μg/mouse prepared using the vehicle formulation for a total injection volume of 0.2 ml. Compound was stable in solution for 56 days at 4° C. Semaglutide was utilized at 98% HPLC purity.

Molecule: Cc1cccc(NC(=O)c2ccc(C(F)(F)F)cc2C(=O)O)n1 [AF38469, 2-((6-methylpyridin-2-yl)carbamoyl)-5-(trifluoromethyl)benzoic acid]
- tremor index score (Cln2^R207X mice [1]; 5-10 Hz, vs vehicle Cln2^R207X): had no impact
- tremor index score (Cln2^R207X mice [1]; 10-15 Hz, 0.3125 μg/ml): significantly reduced
- tremor index score (Cln2^R207X mice [1]; 15-20 Hz and 20-25 Hz, 0.03125 μg/ml, 0.3125 μg/ml, 3.125 μg/ml): significantly reduced
- tremor index scores (Cln2^R207X mice [1]; lower concentrations, summary statement): significantly reduce
- astroglial activation (GFAP) (Cln2^R207X mice [2]; 3.125 μg/ml, 78.125 μg/ml, VPM/VPL of the thalamus): did not impact
- astroglial activation (GFAP) (Cln2^R207X mice [2]; 3.125 μg/ml, somatosensory cortex): significantly increased
- astroglial activation (GFAP) (Cln2^R207X mice [2]; 78.125 μg/ml, somatosensory cortex): had no impact
- GFAP reactivity (Cln2^R207X mice [2]; higher doses, summary statement): increased or had no impact
- astroglial activation (GFAP) (Cln2^R207X mice [2]; lower doses 0.03125 μg/ml, 0.3125 μg/ml): had no significant impact; also recorded: did not significantly impact

- levels of Cathepsin D (Cathepsin D; LM11A-31 100 nM, Cln2^R207X and Cln3^Δex7/8 MEFs, DIV7): significantly decreased
Molecule: CC[C@H](C)[C@H](N)C(=O)NCCN1CCOCC1 [LM11A-31, N-[2-(morpholin-4-yl)ethyl]-L-isoleucinamide]
- overall levels of activity for Cathepsin D enzyme in cell lysates (Cathepsin D; LM11A-31, overall statement (FIG. 15B)): increased the overall levels of activity

Molecule: semaglutide
- stable in solution [3]: 56 days
